We go through one compound from patent US10765638B2, “Particle formulation with polycation complex” (Yale University, priority 2017, dated 2020).

Experiment [1] concerns BEN. Nature of the experiment: Lung cancer cell line viability screen. It is filed as cell-based. Conditions: NSCLC, read-out: NGI-1 (IC50). The method, then: (§1) NGI-1 activity was screened in 94 lung cancer cell lines at the Center for Molecular Therapeutics at the Massachusetts General Hospital Center for Cancer Research with previously described methods (Garnett et al., Nature, 483(7391):570-5 (2012)). Briefly, cells were treated in 384-well microplates using 9 serial NGI-1 dilutions, returned to an incubator for 96 hours, then stained with 55 μg/ml resazurin (Sigma) prepared in Glutathione-free media for 4 hours. Fluorescent signal intensity was quantified with a plate reader at excitation and emission wavelengths of 535/595 nm to determine viability. Viability ratio across the 9 doses were fitted to determine the half maximal inhibitory concentration (IC50).

In experiment [2] the test system is RERF-LC-Sq1. Nature of the experiment: Lung cancer cell line viability screen. Conditions: RERF-LC-Sq1, NSCLC; read-out: NGI-1 (IC50). It is filed as cell-based. As to the method:
as §1

Experiment [3] has as its system LC-1F. The experiment can be described thus: Lung cancer cell line viability screen. It is filed as cell-based. The settings on record: NSCLC, read-out: NGI-1 (IC50). As to the method:
as §1

Experiment [4] has as its system A-427. The experiment can be described thus: Lung cancer cell line viability screen. It is filed as cell-based. The settings on record: Homo sapiens; A-427, NSCLC; read-out: NGI-1 (IC50). The method, then:
as §1

Experiment [5] relates to NCI-H1838. The experiment can be described thus: Lung cancer cell line viability screen. Type of experiment: cell-based. The settings on record: Homo sapiens; NCI-H1838, NSCLC, EGFR amplified; read-out: NGI-1 (IC50). As to the method:
as §1

The test system of experiment [6] is Calu-3. Nature of the experiment: Lung cancer cell line viability screen. It is filed as cell-based. The settings on record: Homo sapiens; Calu-3, NSCLC, ErbB2 amplified; read-out: NGI-1 (IC50). As to the method: as §1
Experiment [7] deals with NCI-H2110. The experiment can be described thus: Lung cancer cell line viability screen. It is filed as cell-based. The settings on record: NCI-H2110, SCLC; read-out: NGI-1 (IC50). The method, then: as §1
The test system of experiment [8] is PC-3 [JPC-3]. The experiment can be described thus: Lung cancer cell line viability screen. The settings on record: NSCLC, EGFR 747-749 del, read-out: NGI-1 (IC50). It is filed as cell-based. The method, then:
as §1

Experiment [9] has as its system IST-SL2. Nature of the experiment: Lung cancer cell line viability screen. It is filed as cell-based. The settings on record: IST-SL2, SCLC; 96 hours; read-out: NGI-1 (IC50). The method, then: as §1
Experiment [10] has as its system EMC-BAC-1. Nature of the experiment: Lung cancer cell line viability screen. It is filed as cell-based. The settings on record: EMC-BAC-1, NSCLC, ErBB3 Y523C; read-out: NGI-1 (IC50). As to the method:
as §1

The test system of experiment [11] is RERF-LC-MS. Nature of the experiment: Lung cancer cell line viability screen. The settings on record: NSCLC, read-out: NGI-1 (IC50). Type of experiment: cell-based. The method, then: as §1
Experiment [12] deals with SKMG3-CD8-EGFR cells. Nature of the experiment: Cell cycle distribution by flow cytometry. It is filed as cell-based, human. Conditions: 10 μM NGI-1, 4 Gy. As to the method: Cell cycle distribution was determined following treatment with vehicle, radiation and/or 10 uM NGI-1. Cells were trypsinized and centrifuged, washed once with ice-cold PBS, fixed with ice-cold 70% ethanol and stored overnight at −20° C. After washing twice with PBS, they were incubated for 30 minutes at room temperature in 200 μL of Guava Cell Cycle Reagent (Guava Technologies). Cytofluorometric acquisitions were performed on a LSRII cytometer (BD Biosciences). First-line analysis was performed with FlowJo software, upon gating of the events characterized by normal forward and side scatter parameters and discrimination of doublets in a FSC-A vs. FSC-H bivariate plot. Approximately 50,000 cells were analyzed per experiment.
The CD8 cDNA was a gift from Paula Kavathas (Yale University). The CD8-EGFR was constructed according to a strategy that generated a constitutively active IGF-1R (24). The extracellular domain of CD8 was PCR amplified with a 5′ XbaI and 3′ SalI restriction site and cloned in-frame with the intracellular kinase domain of EGFR using the pDCB5-EGFR plasmid. SKMG3-CD8-EGFR cells were generated by Lipofectamine (Life Technologies) transfection of the plasmid followed by selection with 500 μg/ml G418. Expression of CD8-EGFR was validated by western blot analysis of the wild type and CD8-EGFR.
(A flow cytometer gives signals particle by particle.)

Experiment [13] deals with CD8-EGFR. Nature of the experiment: Western blot of CD8-EGFR phosphorylation in SKMG3-CD8-EGFR cells. It is filed as cell-based, human. The settings on record: SKMG3 cells with stable expression of the CD8-EGFR. The method, then:
The CD8 cDNA was a gift from Paula Kavathas (Yale University). The CD8-EGFR was constructed according to a strategy that generated a constitutively active IGF-1R (24). The extracellular domain of CD8 was PCR amplified with a 5′ XbaI and 3′ SalI restriction site and cloned in-frame with the intracellular kinase domain of EGFR using the pDCB5-EGFR plasmid. SKMG3-CD8-EGFR cells were generated by Lipofectamine (Life Technologies) transfection of the plasmid followed by selection with 500 μg/ml G418.

The subject of experiment [14] is FGFR1 dependent H1580. Conditions: Lopez-Sambrooks et al., Nat Chem Biol. 2016; cited from earlier work.

As to `Cc1cnc(NC(=O)c2cc(S(=O)(=O)N(C)C)ccc2N2CCCC2)s1` [NGI-1, 5-(dimethylsulfamoyl)-N-(5-methyl-1,3-thiazol-2-yl)-2-(pyrrolidin-1-yl)benzamide], the IC50 in experiment [1] came out at 9.72 µM; in experiment [2], 7.39 µM; in [3], 7.94 µM; in experiment [4], 4.92 µM; in experiment [5] it was 4.29 µM; in [6], 8.71 µM. The IC50 was determined as 9.01 µM in experiment [7]; 4.9 µM in experiment [8]; 2.63 µM in experiment [9]; 4.1 µM in experiment [10]; 8.07 µM in [11]. In addition, the “G1 cell cycle arrest caused by NGI-1, alone and after exposure to radiation” value in experiment [12] is given as “eliminated the G1 cell cycle arrest”. The “CD8-EGFR phosphorylation (phospho-Y1068, phospho-Y845)” value in experiment [13] is reported as “resistant”. The “sensitivity to OST inhibition with NGI-1” value in experiment [14] is reported as “sensitive”.

The term IC50 denotes the midpoint of a concentration-inhibition curve.
